This assay concerns DK-PGD2-induced IL-13 production in T helper type 2 (Th2) cells. As to the kind of experiment: DK-PGD2-Induced IL-13 Production Assay in Th2 Cells. The settings on record: human Th2 cells; 500 nM DK-PGD2; 4 hrs at 37° C.; 10% human AB serum; ELISA; read-out: IC50 value, inhibition of IL-13 production. Type of assay: cell-based. As to the method:
Cultures of Th2 cells were established from blood of healthy human volunteers according to the following procedure. Peripheral blood mononuclear cells (PBMC) were first isolated from 50 mL of fresh blood by Ficoll-Hypaque density gradient centrifugation, followed by CD4^+ cell purification using a CD4^+ T Cell Isolation Kit II (from Miltenyi Biotec Inc.). The CD4^+ T cells were then differentiated to Th2 cells by culturing the cells in X-VIVO 15® medium (from Cambrex BioScience Walkersville Inc.) containing 10% human AB serum (serum of blood type AB from Invitrogen Corporation), 50 U/mL of recombinant human interleukin-2 (rhIL-2) (from PeproTech Inc.) and 100 ng/mL of recombinant human interleukin-4 (rhIL-4) (from PeproTech Inc.) for 7 days. The Th2 cells were isolated using a CD294 (CRTH2) MicroBead Kit (from Miltenyi Biotec Inc.) and amplified in X-VIVO 15® medium containing 10% human AB serum and 50 U/mL of rhIL-2 for 2 to 5 weeks. In general, 70% to 80% of the Th2 cells used in the assay are CRTH2-positive when analyzed by fluorescence-activated cell sorting using the BM16 antibody (as previously described) conjugated to phycoerythrin (PE).
To determine cellular inhibitory potency, compounds at various concentrations were incubated with 2.5×10^4 Th2 cells and 500 nM DK-PGD2 for 4 hrs at 37° C. in 200 μL of X-VIVO 15® medium containing 10% human AB serum. […] The spontaneous production of IL-13 by Th2 cells was determined in the absence of DK-PGD2 stimulation and the value was subtracted from that in the presence of each compound for percent inhibition and IC50 calculations.
The percent inhibition of interleukin 13 (IL-13) production for a compound at various concentrations was calculated according to the following formula, [1-(IL-13 production in the presence of compound)/(IL-13 production in the presence of 0.15% DMSO)]×100. The IC50 value, defined as the concentration of a compound that is required for 50% inhibition of IL-13 production, was calculated by fitting the percent inhibition data for 7 concentrations to a sigmoidal dose-response (4 parameter logistic) model in the XLfit® software Excel add-in program [ID Business Solutions Ltd., model 205, where F(x)=(A+(B−A)/(1+((C/x)̂D)))].
`CN([C@@H]1CCCc2c(OCC(=O)O)cccc21)S(=O)(=O)c1cc(F)cc(C(F)(F)F)c1` [Example 1-1, {(R)-5-[(3-fluoro-5-trifluoromethyl-benzenesulfonyl)-methyl-amino]-5,6,7,8-tetrahydro-naphthalen-1-yloxy}-acetic acid]: the IC50 worked out at 4.65 µM.

In the case of `CCN(CC)c1cc(C(F)(F)F)cc(S(=O)(=O)N(C)[C@@H]2CCCc3c(OCC(=O)O)cccc32)c1` [Example 4-2, {(R)-5-[(3-diethylamino-5-trifluoromethyl-benzenesulfonyl)-methyl-amino]-5,6,7,8-tetrahydro-naphthalen-1-yloxy}-acetic acid], the 50% inhibitory concentration (IC50) was found to be 3.01 µM. For `CCOc1cc(C(F)(F)F)cc(S(=O)(=O)N(C)[C@@H]2CCCc3c(OCC(=O)O)cccc32)c1` [Example 9-2, {(R)-5-[(3-ethoxy-5-trifluoromethyl-benzenesulfonyl)-methyl-amino]-5,6,7,8-tetrahydro-naphthalen-1-yloxy}-acetic acid] the value was 4.84 µM; for `CN([C@@H]1CCCc2c(OCC(=O)O)cccc21)S(=O)(=O)c1cc(OC2CCCC2)cc(C(F)(F)F)c1` [Example 9-3, {(R)-5-[(3-cyclopentyloxy-5-trifluoromethyl-benzenesulfonyl)-methyl-amino]-5,6,7,8-tetrahydro-naphthalen-1-yloxy}-acetic acid], 5.09 µM.

These data come from patent publication US20100041760A1, “MONOARYL AMINOTETRALINES” (priority 2008, published 2010).
